Source: patent US11578074B2, “Nitrogenous heterocyclic compound, preparation method, intermediate, composition, and application” (SHANGHAI PHARMACEUTICALS HOLDING CO., LTD., priority 2017, dated 2023)
Where two headings read alike, the source gives them in different places.

Columns and labels:
EGFR kinase = EGFR kinase (Homo sapiens, UniProt P00533); experiment: EGFR/ErbB2 enzymatic experiment (HTRF kinEASE-TK), EGFR; assay type: biochemical; settings: EGFR kinase 0.06 units/μL, ATP 1.65 μM; read-out: Kinase IC50 (nM) in vitro EGFR
CYP3A4 = molecular target: T1, CYP3A4 (Homo sapiens, UniProt P08684); experiment: Direct inhibition (DI) of CYP3A4 in human liver microsomes; assay type: in vitro ADME; settings: human liver microsomes 0.2 mg/mL, 10 μM compound
T1 construct: A system of 100 μL human liver microsomes; from tissue; host or cells: human liver microsomes
Outline: (§1)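 Pooled human liver microsomes (0.2 mg/mL) with 1 mM NADPH and 10 μM test compound were incubated for 20 min with a mixed probe-substrate cocktail (midazolam 10 μM, testosterone 100 μM, dextromethorphan 10 μM, diclofenac 20 μM, phenacetin 100 μM, mephenytoin 100 μM). Relative enzyme activity came from metabolite formation versus DMSO control.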

CYP2C9 = molecular target: T2, CYP2C9 (Homo sapiens, UniProt P11712); experiment: Direct inhibition (DI) of CYP2C9 in human liver microsomes; assay type: in vitro ADME; settings: probe Diclofenac, human liver microsomes 0.2 mg/mL, 10 μM compound, read-out: Direct inhibition (DI) 2C9 (Diclofenac)
T2 construct: A system of 100 μL human liver microsomes; from tissue; host or cells: human liver microsomes
Outline: as §1

CYP2C19 = molecular target: T3, CYP2C19 (Homo sapiens, UniProt P33261); experiment: Direct inhibition (DI) of CYP2C19 in human liver microsomes; assay type: in vitro ADME; settings: probe Mephenytoin, human liver microsomes 0.2 mg/mL, 10 μM compound, read-out: Direct inhibition (DI) 2C19 (Mephenytoin)
T3 construct: A system of 100 μL human liver microsomes; from tissue; host or cells: human liver microsomes
Outline: as §1

[1] = In vivo pharmacokinetics study in beagle dogs; settings: male, beagle, dog, in vivo, po, 15 mg/kg
Protocol: 6 male beagle dogs (purchased from Beijing Marshall Biotechnology Co., Ltd., certificate No. SCXK (Beijing) 2016-0001) were divided into 2 groups with 3 dogs in each group, and all of the animals were fasted for about 12 hours before administration. One group was orally administrated with 15 mg/kg of the final product of Embodiment 22 (deionized water was added, followed by sonication for 29 minutes and stirring for 4 minutes, and a clear pale yellow dosing solution with a concentration of 3 mg/mL was prepared); the other group was orally administrated with 15 mg/kg of Pyrotinib (deionized water was added, followed by sonication for 28 minutes and stirring for 5 minutes, and a clear yellow dosing solution with a concentration of 3 mg/mL was prepared). Blood samples were collected before administration and at 15, 30, 60, 90, 120, 150, 180, 240, 360, 480, 720 and 1440 minutes respectively after administration.
1.0 mL of blood was collected from each animal through jugular vein puncture at each time point and heparin sodium was used for anticoagulation. The blood samples were collected and placed in labeled centrifuge tubes, and plasma was centrifuged (centrifugation conditions: 3500 rpm, 10 minutes, 2-8° C.). To 50 μL of plasma sample was added 300 μL of acetonitrile containing internal standard (Propranolol, 25 ng/mL) to precipitate the protain. After vortexing for 10 minutes and centrifuging at 6000 g for 20 minutes, 100 μL of supernatant was taken and injected into a 96-well plate. The drug concentration in plasma was determined by UPLC/MS-MS.

[2] = In vivo pharmacokinetic study in mice; settings: male, ICR, mouse, plasma, oral, 3 mg/kg intravenous, 10 mg/kg intragastric
Protocol: 24 male ICR mice weighing 18-22 g (provided by Shanghai Xipuerbikai Experimental Animal Co., Ltd, certificate No.: 20130016005759). The mice were fasted for feed but not water for 12-16 hours before the experiment. 24 mice were divided into 2 groups with 12 mice in each group. The first group was intravenously administrated with 3 mg/kg (which was dissolved by the ratio 0.9% physiological saline:PEG 400=8:2, to give a clear solution with a concentration of 0.3 mg/mL and a dosage volume of 10 mL/kg) of the final product of Embodiment 45. Blood samples were collected before administration and 2, 5, 15, 30, 60, 90, 120, 240, 360, 480, 600 and 1440 minutes after administration, respectively. The second group was intragastricly administrated with 10 mg/kg (0.5% CMC-Na was added and grounded into a uniform suspension with a concentration of 0.5 mg/mL and a dosage volume of 20 mL/kg) of the final product of Embodiment 45. […]
0.4 mL of blood was taken from fundus venous plexus of mice and rats into a heparinized centrifuge tube (10 μL heparin sodium solution/tube). […] After vortexing for 10 minutes and centrifuging at 6000 g and 4° C. for 10 minutes, the supernatant was diluted with mobile phase in a 96-well plate, and the drug concentration in plasma was determined by UPLC/MS-MS.

[3] = probe Midazolam, read-out: Direct inhibition (DI) 3A4 (Midazolam)
[4] = probe Testosterone, read-out: Direct inhibition (DI) 3A4 (testosterone)

T1 sequence (P08684 whole entry): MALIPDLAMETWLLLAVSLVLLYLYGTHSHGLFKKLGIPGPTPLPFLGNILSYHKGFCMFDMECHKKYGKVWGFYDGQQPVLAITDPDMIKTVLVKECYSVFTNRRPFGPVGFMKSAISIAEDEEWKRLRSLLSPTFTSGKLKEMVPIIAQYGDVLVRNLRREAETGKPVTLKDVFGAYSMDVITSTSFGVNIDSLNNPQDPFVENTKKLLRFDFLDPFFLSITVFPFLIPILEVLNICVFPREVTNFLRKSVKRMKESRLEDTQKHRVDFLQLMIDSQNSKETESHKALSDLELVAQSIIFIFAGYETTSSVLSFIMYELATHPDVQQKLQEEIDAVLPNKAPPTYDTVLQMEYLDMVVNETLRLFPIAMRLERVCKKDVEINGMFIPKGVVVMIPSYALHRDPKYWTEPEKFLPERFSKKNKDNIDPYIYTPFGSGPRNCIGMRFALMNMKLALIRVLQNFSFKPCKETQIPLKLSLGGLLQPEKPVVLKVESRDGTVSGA
T3 sequence (P33261 whole entry): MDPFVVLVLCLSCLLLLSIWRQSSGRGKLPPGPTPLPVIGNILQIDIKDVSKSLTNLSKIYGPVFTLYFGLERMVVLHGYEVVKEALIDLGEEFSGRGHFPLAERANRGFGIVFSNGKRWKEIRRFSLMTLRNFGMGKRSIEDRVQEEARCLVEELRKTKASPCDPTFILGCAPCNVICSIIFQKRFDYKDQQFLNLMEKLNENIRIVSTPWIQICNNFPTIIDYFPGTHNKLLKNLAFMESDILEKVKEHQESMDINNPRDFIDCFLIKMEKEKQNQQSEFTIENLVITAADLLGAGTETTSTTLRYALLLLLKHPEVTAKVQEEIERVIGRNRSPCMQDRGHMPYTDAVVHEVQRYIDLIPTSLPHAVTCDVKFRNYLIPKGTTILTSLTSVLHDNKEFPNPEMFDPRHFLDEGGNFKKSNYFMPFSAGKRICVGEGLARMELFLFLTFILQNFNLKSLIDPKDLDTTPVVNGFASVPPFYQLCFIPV
T2 sequence (P11712 whole entry): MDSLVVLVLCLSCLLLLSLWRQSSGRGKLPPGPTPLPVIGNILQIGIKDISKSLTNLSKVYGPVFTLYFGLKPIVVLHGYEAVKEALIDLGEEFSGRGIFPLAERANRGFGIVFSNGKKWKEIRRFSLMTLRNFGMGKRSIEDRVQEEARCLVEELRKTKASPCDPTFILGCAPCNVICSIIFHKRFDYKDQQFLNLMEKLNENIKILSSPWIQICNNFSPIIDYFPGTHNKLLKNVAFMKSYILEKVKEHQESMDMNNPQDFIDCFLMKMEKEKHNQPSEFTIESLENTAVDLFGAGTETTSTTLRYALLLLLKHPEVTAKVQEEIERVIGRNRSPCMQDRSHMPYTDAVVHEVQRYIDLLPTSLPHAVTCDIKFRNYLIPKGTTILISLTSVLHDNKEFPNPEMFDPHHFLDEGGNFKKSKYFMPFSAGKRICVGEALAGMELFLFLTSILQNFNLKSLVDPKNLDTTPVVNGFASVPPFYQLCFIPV
Chain of EGFR kinase (P00533 25-1210): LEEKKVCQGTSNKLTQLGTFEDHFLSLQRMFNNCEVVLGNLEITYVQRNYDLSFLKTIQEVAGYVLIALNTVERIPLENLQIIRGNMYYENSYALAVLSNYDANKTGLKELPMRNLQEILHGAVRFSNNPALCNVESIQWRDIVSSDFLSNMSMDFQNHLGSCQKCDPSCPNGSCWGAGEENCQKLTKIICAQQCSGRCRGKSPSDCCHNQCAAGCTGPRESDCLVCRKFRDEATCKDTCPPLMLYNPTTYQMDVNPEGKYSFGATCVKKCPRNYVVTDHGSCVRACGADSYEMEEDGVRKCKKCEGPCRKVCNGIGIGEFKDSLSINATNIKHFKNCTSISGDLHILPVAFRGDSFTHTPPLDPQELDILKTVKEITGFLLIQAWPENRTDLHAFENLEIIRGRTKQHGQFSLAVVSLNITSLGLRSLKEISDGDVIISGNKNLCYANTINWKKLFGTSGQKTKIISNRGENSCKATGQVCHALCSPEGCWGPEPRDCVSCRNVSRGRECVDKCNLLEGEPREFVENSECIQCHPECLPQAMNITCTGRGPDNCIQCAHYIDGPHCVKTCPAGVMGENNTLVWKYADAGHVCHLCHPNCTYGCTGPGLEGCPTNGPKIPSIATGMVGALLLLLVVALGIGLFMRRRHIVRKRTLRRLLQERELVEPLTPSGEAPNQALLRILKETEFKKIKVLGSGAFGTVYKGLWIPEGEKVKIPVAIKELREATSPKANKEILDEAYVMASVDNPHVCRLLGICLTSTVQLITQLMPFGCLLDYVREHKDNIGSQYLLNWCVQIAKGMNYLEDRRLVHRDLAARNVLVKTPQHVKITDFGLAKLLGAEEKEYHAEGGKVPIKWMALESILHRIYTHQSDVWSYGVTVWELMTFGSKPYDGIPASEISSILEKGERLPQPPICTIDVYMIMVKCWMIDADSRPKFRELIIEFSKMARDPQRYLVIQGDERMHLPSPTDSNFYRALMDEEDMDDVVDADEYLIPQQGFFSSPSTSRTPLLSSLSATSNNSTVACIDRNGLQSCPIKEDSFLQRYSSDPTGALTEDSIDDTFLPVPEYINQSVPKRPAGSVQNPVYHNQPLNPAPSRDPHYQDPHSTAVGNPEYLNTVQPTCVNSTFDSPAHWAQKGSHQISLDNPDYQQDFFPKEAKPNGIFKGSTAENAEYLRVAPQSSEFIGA

Compound	IC50 (EGFR kinase)	inhibition at 20 min, 10 µM (CYP3A4; [3])	inhibition at 20 min, 10 µM (CYP3A4; [4])	inhibition at 20 min, 10 µM (CYP2C9)	inhibition at 20 min, 10 µM (CYP2C19)	AUC [1]	peak oral absorption concentration [1]	bioavailability [2]
CCOc1cc2ncnc(Nc3ccc(Oc4ccn5ncnc5c4)c(C)c3)c2cc1NC(=O)/C=C/[C@H]1CCCN1C [Final product of Embodiment 22, (R,E)-N-(4-((4-([1,2,4]triazolo[1,5-a]pyridin-7-yloxy)-3-methylphenyl)amino)-7-ethoxyquinazolin-6-yl)-3-(1-methylpyrrolidin-2-yl)acrylamide]	0.8 nM	12%	32%	10%	37%	5190 ng·h/mL	432.6 ng/mL	
CCOc1cc2ncnc(Nc3ccc(Oc4ccn5ncnc5c4)c(C)c3)c2cc1NC(=O)/C(F)=C/[C@H]1CCCN1C [Final product of Embodiment 45]	10.5 nM	6%	24%	< 0%	11%			87.7%
